Test results reported in ChEMBL document CHEMBL5303304, “EUbOPEN Chemogenomics Library - IncuCyte” (2023).

Key:
Format in all cases: toxicity, cell-based
HEK-293T = test: Incucyte cell viability with HEK293T; details: human, 10 µM, compound concentration 10 uM
Fibroblast = test: Incucyte cell viability with human fibroblast; details: 10 µM, compound concentration 10 uM
U2OS = test: Incucyte cell viability with U2OS; details: human, 10 µM, compound concentration 10 uM
Note: unitless GR value; below 1 slowed growth and below 0 cell loss.

| SMILES | Growth Rate (HEK-293T; 0 h, replicate number 2) | Growth Rate (HEK-293T; 6 h, replicate number 1) | Growth Rate (HEK-293T; 6 h, replicate number 2) | Growth Rate (HEK-293T; 12 h, replicate number 1) | Growth Rate (HEK-293T; 18 h, replicate number 1) | Growth Rate (HEK-293T; 24 h, replicate number 1) | Growth Rate (HEK-293T; 24 h, replicate number 2) | Growth Rate (Fibroblast; 0 h, replicate number 2) | Growth Rate (Fibroblast; 12 h, replicate number 1) | Growth Rate (Fibroblast; 12 h, replicate number 2) | Growth Rate (Fibroblast; 18 h, replicate number 1) | Growth Rate (Fibroblast; 18 h, replicate number 2) | Growth Rate (Fibroblast; 24 h, replicate number 1) | Growth Rate (Fibroblast; 24 h, replicate number 2) | Growth Rate (U2OS; 12 h, replicate number 2) | Growth Rate (U2OS; 18 h, replicate number 1) | Growth Rate (U2OS; 24 h, replicate number 1) | Growth Rate (Fibroblast; 0 h, replicate number 1) | Growth Rate (Fibroblast; 6 h, replicate number 1) | Growth Rate (U2OS; 6 h, replicate number 1) | also measured |
| --- | --- | --- | --- | --- | --- | --- | --- | --- | --- | --- | --- | --- | --- | --- | --- | --- | --- | --- | --- | --- | --- |
| CCCCNc1ncc2c(-c3ccc(CN4CCN(C)CC4)cc3)cn([C@H]3CC[C@H](O)CC3)c2n1 | 0.42 | -0.33 | -0.21 | -0.54 | -0.43 | -0.3 | -0.28 | -0.9 | 0.6 | 0.3 | -0.08 | -0.25 | -0.18 | -0.33 | 0.4 | 0.13 | -0.14 | – | – | – | Growth Rate (HEK-293T; 12 h, replicate number 2): -0.55; Growth Rate (HEK-293T; 18 h, replicate number 2): -0.41; Growth Rate (U2OS; 0 h, replicate number 2): 0.17; Growth Rate (U2OS; 18 h, replicate number 2): -0.13; Growth Rate (U2OS; 24 h, replicate number 2): -0.3 |
| CC(C)c1nc2c(c3c1[C@H](c1ccc(C(F)(F)F)cc1)OC31CCOCC1)[C@H](O)CC(C)(C)C2 | -0.1 | -0.63 | – | 0.02 | 0.41 | 0.62 | 0.94 | – | -0.62 | -0.47 | -0.17 | -0.05 | 0.08 | 0.1 | 0.84 | 0.93 | 0.88 | -1 | -0.78 | 0.38 | Growth Rate (HEK-293T; 18 h, replicate number 2): 0.84; Growth Rate (Fibroblast; 6 h, replicate number 2): -0.98; Growth Rate (U2OS; 0 h, replicate number 1): -0.17; Growth Rate (U2OS; 12 h, replicate number 1): 0.82 |
| Nc1nc(-c2nn(Cc3ccccc3F)c3ncccc23)ncc1C1CC1 | 0.14 | – | – | – | – | – | – | -0.93 | – | – | 0.69 | – | 0.73 | 0.8 | – | – | 0.68 | – | 0.35 | 0.69 | Growth Rate (U2OS; 18 h, replicate number 2): 0.87; Growth Rate (U2OS; 24 h, replicate number 2): 0.71 |
| O=C([O-])c1cc2cc(Cc3cccnc3)ccc2o1.[Na+] | 0.2 | 0.1 | 0.83 | 0.56 | – | – | – | – | – | 0.64 | – | – | – | – | 0.98 | 1 | 0.71 | – | 0.42 | 0.77 | Growth Rate (U2OS; 0 h, replicate number 1): -0.13; Growth Rate (U2OS; 12 h, replicate number 1): 0.4 |
| O=C(Nc1ccc(N2CCC(C(=O)N3CCOCC3)CC2)cc1)c1cnc(Oc2ccccc2)nc1 | -0.09 | -0.02 | – | 0.64 | 0.92 | 0.95 | – | -0.91 | – | 0.75 | 0.95 | 0.87 | 0.99 | 0.78 | – | – | – | – | 0.98 | 0.96 | – |
| CCOC(=O)CS(=O)(=O)c1ccc([C@@H](CO)NC(=O)c2cc3c(Cl)c(Cl)c(C)cc3n2C)cc1 | 0.13 | – | – | – | – | – | – | – | -0.98 | -0.95 | -0.91 | -0.85 | -0.81 | -0.7 | 0.52 | -0.31 | -0.16 | -1 | – | -0.2 | Growth Rate (Fibroblast; 6 h, replicate number 2): -1; Growth Rate (U2OS; 0 h, replicate number 1): -0.21; Growth Rate (U2OS; 6 h, replicate number 2): 1; Growth Rate (U2OS; 12 h, replicate number 1): -0.25; Growth Rate (U2OS; 18 h, replicate number 2): 0.87; Growth Rate (U2OS; 24 h, replicate number 2): 0.97 |
| CC(C)Oc1ccc(F)c(-c2cnc(N)c(C(=O)Nc3cnccc3N3CCC[C@@H](C(=O)O)C3)n2)c1 | 0.37 | – | 0.61 | -0.19 | -0.11 | -0.01 | 0.05 | – | – | – | – | 0.97 | – | 0.61 | – | – | 0.84 | 0.44 | -1 | – | Growth Rate (HEK-293T; 12 h, replicate number 2): -0.28; Growth Rate (HEK-293T; 18 h, replicate number 2): -0.06; Growth Rate (U2OS; 0 h, replicate number 2): -0.44 |
| CC1(C)Oc2ncnc(N)c2N=C1c1ccc([C@H]2CC[C@H](CC(=O)O)CC2)cc1 | -0.22 | 0.77 | 0.36 | – | 0.89 | 0.94 | 0.99 | -0.9 | 0.81 | – | – | – | – | 0.97 | 0.89 | 0.85 | 0.96 | -0.99 | 0.56 | 0.57 | Growth Rate (U2OS; 0 h, replicate number 1): 0.58; Growth Rate (U2OS; 0 h, replicate number 2): -0.4; Growth Rate (U2OS; 6 h, replicate number 2): 0.92 |
